Data: patent publication US5912251A, “Metabolically inert anti-inflammatory and anti-tumor antifolates” (priority 1998, dated 1999)

Columns and labels:
SR = assay: Human Disease Oriented in vitro Antitumor Screen (NCI), total growth inhibition, SR; type: cell-based; conditions: Leukemia
Protocol: (§1) Compound 1 was evaluated for its anti-tumor activity using the Human Disease Oriented in vitro Antitumor Screen at the National Cancer Institute.

SF 539 = assay: Human Disease Oriented in vitro Antitumor Screen (NCI), total growth inhibition, SF 539; type: cell-based; conditions: CNS Cancer
Protocol: as §1

MOLT-4 = assay: Human Disease Oriented in vitro Antitumor Screen (NCI), total growth inhibition, MOLT-4; type: cell-based; conditions: Leukemia
Protocol: as §1

allergic rabbits = assay: allergen-induced asthmatic responses and bronchial hyper-responsiveness (BHR) in allergic rabbits; type: in vivo, New Zealand White rabbit; conditions: for Asthmatic Response, Early: percent inhibition from control / Asthmatic Response, Late: percent inhibition from control / BHR (bronchial hyper-responsiveness): percent inhibition from control: aerosol 5 mg/ml; for Asthmatic Response, Early: percent inhibition from control: early-phase area under the curve; for Asthmatic Response, Late: percent inhibition from control: late-phase area under the curve; for BHR (bronchial hyper-responsiveness): percent inhibition from control: repeat histamine challenge 24 hour later
Protocol: Experimental Model: Induction of Asthma in Rabbits. New Zealand White Pasturella-free rabbit litter mates were bred and immunized ip within 24 hour of birth with 312 AU dust mite allergen extract [Berkeley Biological, Berkeley, Calif.] in 10% kaolin once every week for one month, then biweekly until the age of 4 months. Mustafa and co-workers used this rabbit model as described in American Journal of Physiology [266, 271-277, 1994]. These allergic animals preferentially produce allergen-specific IgE antibody and typically respond to aeroallergen challenge with an early and late phase asthmatic response and show increased bronchial hyper responsiveness (BHR).
Allergen, Theophylline and Antifolate Challenges: These experiments were carried out as described by Mustafa and co-workers in the Journal, Agents and Actions in 1992 [37, 168-170, 1992 ]. Briefly, allergic rabbits were challenged with ragweed allergen aerosol (10,000 PNU/mL) as described until there was an approximate 50% reduction in dynamic compliance (Cdyn). Pulmonary function was measured at 15 minutes intervals for 6 hours. The rabbit was challenged with indicated antifolates [5 mg/mL, aerosolized for 4 minutes ] followed immediately by the same total dose of allergen. Pulmonary function measurements as described by Mustafa and co-workers in the cited reference were carried out for 6 hours.
To assess the effect of antifolates on allergen-induced changes in the airways, the area under the curve for early and late -phase response was digitalized by computer-assisted plenometry for each rabbit during the six hour time period.

RPMI 8226 = assay: Human Disease Oriented in vitro Antitumor Screen (NCI), total growth inhibition, RPMI 8226; type: cell-based; conditions: Leukemia
Protocol: as §1

K562 = assay: Human Disease Oriented in vitro Antitumor Screen (NCI), total growth inhibition, K562; type: cell-based; conditions: Leukemia
Protocol: as §1

CCRF-CEM = assay: Human Disease Oriented in vitro Antitumor Screen (NCI), total growth inhibition, CCRF-CEM; type: cell-based; conditions: Leukemia
Protocol: as §1

[1] = test system: carboxypeptidase derived from Pseudomonad sp
Description: (§2) As part of a continuing program aimed at the development of less toxic and more specific antifolate drugs for the treatment of human cancers, the pteridine ring of the experimental anticancer drug methylene-10-deazaaminopterin [MDAM] was replaced with a quinazoline ring.

[2] = test system: leukemia cells that are resistant to MTX by virtue of defective polyglutamylation; assay: growth inhibition of MTX-resistant leukemia cells with defective polyglutamylation vs wild type CCRF-CEM; type: cell-based; conditions: defective polyglutamylation line compared to wild type MTX sensitive parental CCRF-CEM
Description: as §2

[3] = test system: rabbit liver aldehyde oxidase; assay: incubation with rabbit liver aldehyde oxidase (conversion to 7-hydroxy derivative); type: in vitro ADME
[4] = test system: folylpolyglutamate synthetase; assay: evaluation in vitro using folylpolyglutamate synthetase (polyglutamylation); type: in vitro ADME
MCF7-ADR-RES = assay: Human Disease Oriented in vitro Antitumor Screen (NCI), total growth inhibition, MCF7-ADR-RES; type: cell-based; conditions: Breast Cancer
Protocol: as §1

[5] = test system: selected human tumor cells; assay: Human Disease Oriented in vitro Antitumor Screen (NCI), panel as a whole; type: cell-based
Protocol: Compound 1 was evaluated for its anti-tumor activity using the Human Disease Oriented in vitro Antitumor Screen at the National Cancer Institute. […] This unexpected finding may be due to the inability of 1 to undergo metabolic transformation.

MCF7 = assay: Human Disease Oriented in vitro Antitumor Screen (NCI), total growth inhibition, MCF7; type: cell-based; conditions: Breast Cancer
Protocol: as §1

[6] = molecular target: T1, human dihydrofolate Reductase (Homo sapiens, UniProt P00374); assay: inhibition of human dihydrofolate reductase; type: biochemical; conditions: human enzyme; read-out: I50
T1 sequence (P00374 1-187): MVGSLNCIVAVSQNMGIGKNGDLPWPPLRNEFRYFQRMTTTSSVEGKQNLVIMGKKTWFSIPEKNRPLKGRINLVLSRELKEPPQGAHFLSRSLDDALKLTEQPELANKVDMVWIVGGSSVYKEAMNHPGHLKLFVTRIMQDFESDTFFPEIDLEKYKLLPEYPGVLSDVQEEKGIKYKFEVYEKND
Description: In order to unravel the mechanism of action of 1 and 1 e they were examined as inhibitors of human dihydrofolate Reductase.

[7] = test system: human leukemia and human solid tumor cells; assay: inhibitory activity against the growth of human cancer cells in culture; type: cell-based

| Compound | Log 10 TGI (SR) | Log 10 TGI (SF 539) | Log 10 TGI (MOLT-4) | Asthmatic Response, Early: percent inhibition from control (allergic rabbits) | Asthmatic Response, Late: percent inhibition from control (allergic rabbits) | BHR (bronchial hyper-responsiveness): percent inhibition from control (allergic rabbits) | Log 10 TGI (RPMI 8226) | Log 10 TGI (K562) | Log 10 TGI (CCRF-CEM) | removal of the 4-methyleneglutamate moiety by carboxypeptidase [1] | also measured |
| --- | --- | --- | --- | --- | --- | --- | --- | --- | --- | --- | --- |
| CN(Cc1cnc2nc(N)nc(N)c2n1)c1ccc(C(=O)N[C@@H](CCC(=O)O)C(=O)O)cc1 [MTX, methotrexate, reference compound] | -3.25 | -3.66 | -3.55 | 29% | 37% | 32% | -3.66 | -3.3 | -3.77 | – | – |
| C=C(CC(NC(=O)c1ccc(N(C)Cc2ccc3nc(N)nc(N)c3c2)cc1)C(=O)O)C(=O)O (stereo not shown) [Compound 1d] | – | – | – | – | – | – | – | – | – | failed to remove the 4-methyleneglutamate moiety | – |
| Cn1c(=O)c2[nH]cnc2n(C)c1=O [Theophylline, theophylline] | – | – | – | 45% | 49% | 39% | – | – | – | – | – |
| C=C(CC(NC(=O)c1ccc(CCc2ccc3nc(N)nc(N)c3c2)cc1)C(=O)O)C(=O)O (stereo not shown) [Compound 1, 5,8,10-trideaza-4'-methyleneaminopterin] | < -8.00 | -6.3 | -7.4 | 52% | 58% | 47% | -7.44 | < -8.00 | < -8.00 | failed to remove the 4-methyleneglutamate moiety | collateral sensitivity: times more sensitive in inhibiting the growth of MTX-resistant leukemia cells [2]: 4-5 times; conversion to 7-hydroxy derivative by aldehyde oxidase [3]: completely inert; elaboration to polyglutamates [4]: not capable of elaboration to its polyglutamates; Log 10 TGI (MCF7-ADR-RES): -7.26; anti-asthmatic activity (in words) (allergic rabbits; relative to MTX and theophylline): not only superior to MTX but also to the well known anti-asthmatic drug theophylline in both early and late asthmatic responses and bronchial hyper responsiveness (BHR); killing of cancer cells (in words) ([5]; NCI in vitro antitumor screen): able to kill cancer cells with remarkable potency; times more effective than MTX in this panel ([5]; total growth inhibition, NCI panel of Table 2): 1,000-10,000 times; Log 10 TGI (MCF7): -6.32; IC50 [6]: 0.066 µM; inhibitory activity against the growth of human cancer cells relative to MTX or MDAM [7]: strikingly more active than either MTX or MDAM; killing of human leukemia and solid tumor cells in culture ([7]; therapeutically relevant concentrations): able to kill a large number of human luekemia and human solid tumor cells in culture at therapeutically relevant concentrations |
